Where a name gives a salt, the structure may show the parent alone.
Columns and labels:
Assay type in all cases: biochemical
DAO = target: T1, DAO (Homo sapiens, UniProt P19801); assay: Inhibition of the enzymatic activity of DAO; details: DAO 15 μg/ml, histamine substrate; read-out: IC50, inhibition against the enzymatic activity of DAO
T1 construct: purchased R&D Systems
T1 sequence (P19801 20-751): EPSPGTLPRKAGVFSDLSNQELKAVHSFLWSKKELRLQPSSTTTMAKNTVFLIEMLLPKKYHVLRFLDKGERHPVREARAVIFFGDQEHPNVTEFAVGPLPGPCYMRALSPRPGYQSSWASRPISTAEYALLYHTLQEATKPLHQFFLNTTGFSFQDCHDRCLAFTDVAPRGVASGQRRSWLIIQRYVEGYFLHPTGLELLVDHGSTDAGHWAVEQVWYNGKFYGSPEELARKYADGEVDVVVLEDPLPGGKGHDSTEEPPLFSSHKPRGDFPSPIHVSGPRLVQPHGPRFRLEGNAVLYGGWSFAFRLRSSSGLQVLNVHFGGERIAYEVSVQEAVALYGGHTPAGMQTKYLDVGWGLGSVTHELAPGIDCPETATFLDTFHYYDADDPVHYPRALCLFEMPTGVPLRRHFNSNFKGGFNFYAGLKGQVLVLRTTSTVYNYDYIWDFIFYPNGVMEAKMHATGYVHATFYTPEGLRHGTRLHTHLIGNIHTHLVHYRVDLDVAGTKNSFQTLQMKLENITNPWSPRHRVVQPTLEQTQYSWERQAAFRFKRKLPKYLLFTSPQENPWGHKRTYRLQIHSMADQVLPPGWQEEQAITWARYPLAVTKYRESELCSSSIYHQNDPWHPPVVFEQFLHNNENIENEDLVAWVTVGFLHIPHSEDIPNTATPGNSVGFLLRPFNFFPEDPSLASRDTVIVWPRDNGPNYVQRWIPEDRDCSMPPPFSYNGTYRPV
Method: Inhibition Experiment Against the Enzymatic Activity of DAO (Diamine Oxidase)
(§1) 1. Test kit: Amplex® Red Monoamine Oxidase Assay, Manufacturer: ThermoFisher
Protein: DAO, manufacturer: R&D Systems
DAO protein (15 μg/ml) and different concentrations of the test compound were pre-incubated at room temperature for 20 minutes, and then 100 μM Histamine-dihydrochloride, 1 U/mL HRP and 200 μM Amplex Red reagent were added to start the reaction. The inhibition rate of each concentration groups were calculated according to the experimental method of MAO-A.

MAO-B = target: T2, MAO-B (Homo sapiens, UniProt P27338); assay: Inhibition of the enzymatic activity of MAO-B; details: range of IC50 from inhibition rates at 10 μM, 1 μM and 0.1 μM; read-out: IC50, inhibition against the enzymatic activity of MAO-B
T2 construct: purchased Sigma Aldrich
T2 sequence (P27338 1-520): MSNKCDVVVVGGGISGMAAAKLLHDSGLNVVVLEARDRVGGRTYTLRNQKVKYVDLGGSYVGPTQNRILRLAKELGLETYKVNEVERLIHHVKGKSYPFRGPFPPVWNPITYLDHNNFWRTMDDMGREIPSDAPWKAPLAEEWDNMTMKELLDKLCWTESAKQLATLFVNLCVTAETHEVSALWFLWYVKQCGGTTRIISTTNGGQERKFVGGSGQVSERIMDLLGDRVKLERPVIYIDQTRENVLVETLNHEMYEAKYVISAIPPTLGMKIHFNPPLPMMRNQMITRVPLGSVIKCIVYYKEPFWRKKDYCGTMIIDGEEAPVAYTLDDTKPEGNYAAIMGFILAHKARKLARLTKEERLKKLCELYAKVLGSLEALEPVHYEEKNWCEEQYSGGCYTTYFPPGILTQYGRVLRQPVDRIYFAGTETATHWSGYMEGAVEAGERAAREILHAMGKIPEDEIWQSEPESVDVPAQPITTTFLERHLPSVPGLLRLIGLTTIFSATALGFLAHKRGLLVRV
Method: Inhibition Experiment Against the Enzymatic Activity of MAO-B (Monoamine Oxidase Type B)
as §1
Protein: MAO-B, manufacturer: Sigma Aldrich
According to the method as described in the specification of the test kit, MAO-B protein (5 μg/ml) and different concentrations of the test compound were pre-incubated at room temperature for 10 minutes, and then 150 μM benzylamine hydrochloride, 1 U/mL HRP and 200 μM Amplex Red reagent were added to start the reaction. The relative inhibition rate of each concentration group were calculated according to the experimental method of MAO-A.
According to the above method, the inhibition of the compound against the activity of the MAO-B was measured, and the range of IC50 was obtained according to the inhibition rates at 10 μM, 1 μM and 0.1 μM.

MAO-A = target: T3, MAO-A (Homo sapiens, UniProt P21397); assay: Inhibition of the enzymatic activity of MAO-A; details: range of IC50 from inhibition rates at 100 μM and 10 μM; read-out: IC50, inhibition against the enzymatic activity of MAO-A
T3 construct: purchased Sigma Aldrich
T3 sequence (P21397 1-527): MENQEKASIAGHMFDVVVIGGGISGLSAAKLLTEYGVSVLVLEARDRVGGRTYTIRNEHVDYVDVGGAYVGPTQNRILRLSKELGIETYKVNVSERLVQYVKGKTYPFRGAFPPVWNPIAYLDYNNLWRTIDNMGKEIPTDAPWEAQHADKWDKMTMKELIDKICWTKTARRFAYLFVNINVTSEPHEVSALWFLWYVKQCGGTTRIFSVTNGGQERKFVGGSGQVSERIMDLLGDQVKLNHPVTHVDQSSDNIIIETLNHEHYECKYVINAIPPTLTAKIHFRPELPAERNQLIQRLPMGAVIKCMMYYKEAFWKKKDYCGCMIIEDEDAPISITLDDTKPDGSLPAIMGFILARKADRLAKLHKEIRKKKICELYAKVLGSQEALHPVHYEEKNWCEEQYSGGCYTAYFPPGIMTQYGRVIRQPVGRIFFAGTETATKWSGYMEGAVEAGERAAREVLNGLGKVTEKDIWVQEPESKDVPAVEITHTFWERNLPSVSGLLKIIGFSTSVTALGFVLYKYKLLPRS
Method: Inhibition Experiment Against the Enzymatic Activity of MAO-A (Monoamine Oxidase Type A)
as §1
2. Reaction Buffer Solution: 50 mM PBS, pH 7.4
Protein: MAO-A, manufacturer: Sigma Aldrich
According to the method as described in the specification of the kit, MAO-A protein (15 μg/ml) and different concentrations of the test compound were pre-incubated at room temperature for 30 minutes, and then 200 μM p-tyramine hydrochloride, 1 U/mL HRP and 200 µM Amplex Red reagent were added to start the reaction. In kinetic mode, fluorescence signals were measured at Ex/Em=540/590 nm. The inhibition rate of each concentration group was calculated, wherein the ratio of fluorescence signal to reaction time ratio is the reaction rate, the vehicle group (DMSO) is the negative control, and the reaction buffer solution group (without enzymes and the compounds) is the blank control.
Percent inhibition rate (%)=(1-(reaction rate of each compound concentration group−reaction rate of the blank group)/(reaction rate of vehicle group−reaction rate of the blank group))*100.
According to the above method, the inhibition of the compound against the enzymatic activity of MAO-A was measured, and the range of IC50 was obtained according to the inhibition rates at 100 μM and 10 μM.

Compound | IC50 (DAO) [µM] | IC50 (MAO-B) [µM] | IC50 (MAO-A) [µM]
NC/C(=C\F)COc1ccc(C(=O)Nc2ccccc2)cc1 [TM1-E, (E)-N-phenyl-4-((2-aminomethyl-3-fluoroallyl)oxy)-benzamide trifluoroacetate] | > 0.1 |  | 
NC/C(=C\F)COc1ccc2c(c1)C(=O)CC2 [TM7-E, (E)-6-((2-aminomethyl-3-fluoroallyl)oxy)-2,3-dihydro-1-indenone trifluoroacetate] | > 1 | > 10 | > 100
NC/C(=C/F)COc1ccc2c(c1)CCNC2=O [TM26-Z, (Z)-6-((2-aminomethyl-3-fluoroallyl)oxy)-3,4-dihydroisoquinolin-1(2H)-one trifluoroacetate] |  | > 1 | > 100
(E)-6-((2-(methylamino)-3-fluoroallyl)oxy)-2-methyl-3,4-dihydroisoquinolin-1(2H)-one trifluoroacetate [TM66-E] | > 0.1 | > 10 | > 10
(E)-6-((2-(methylamino)-3-fluoroallyl)oxy)-3,3-dimethyl-3,4-dihydro-isoquinolin-1(2H)-one trifluoroacetate [TM38-E] | > 1 | > 10 | > 100

Second part, the compound after the results:

IC50 (DAO) [µM] | IC50 (MAO-B) [µM] | IC50 (MAO-A) [µM] | Compound
 |  | > 10 | NC/C(=C\F)COc1ccc(-c2ncccn2)cc1 [TM39-E, (E)-2-(4-(2-pyrimidyl)phenoxymethyl)-3-fluoroallylamine trifluoroacetate]
> 0.1 | > 1 | > 100 | NC/C(=C\F)COc1ccc(C(=O)NC2CCOCC2)cc1 [TM76-E, (E)-N-(tetrahydro-2H-pyran-4-yl)-4-((2-aminomethyl-3-fluoroallyl)oxy)-benzamide trifluoroacetate]
> 0.1 | > 0.1 | > 100 | NC/C(=C/F)COc1ccc(C(=O)NCc2ccccn2)cc1 [TM112-Z, (Z)-4-((2-aminomethyl-3-fluoroallyl)oxy)-N-(pyridin-2-ylmethyl)benzamide trifluoroacetate]

— US20200087248A1, “Fluoroallylamine Derivative And Use Thereof” (SICHUAN KELUN-BIOTECH BIOPHARMACEUTICAL CO., LTD., priority 2017, published 2020)
